Assay results reported in the NIST ThermoML archive (doi:10.1007/s10765-007-0223-x).

Columns and labels:
[1] = xn = mol fraction of the nth substance listed; settings: 101 kPa, Liquid, x2 = 0; for speed of sound: Single path-length method
[2] = 101 kPa, Liquid; for speed of sound: Single path-length method

CC(C)(C)O [2-methylpropan-2-ol] + COC(C)(C)C
[1]
Settings | mass density [kg/m3] | speed of sound [m/s]
301.65 K | 777.762 | 1109
303.15 K | 775.212 | 1099
305.65 K | 772.623 | 1088.3
308.15 K | 770.015 | 1077.7
310.65 K | 767.391 | 1067.2
313.15 K | 764.739 | 1056.7
315.65 K | 762.054 | 1046.1
318.15 K | 759.355 | 1035.7
320.65 K | 756.633 | 1025.2
323.15 K | 753.891 | 1014.8

CC(C)(C)O [2-methylpropan-2-ol]
[2]
Settings | mass density [kg/m3] | speed of sound [m/s]
301.65 K | 777.762 | 1109
303.15 K | 775.212 | 1099
305.65 K | 772.623 | 1088.3
308.15 K | 770.015 | 1077.7
310.65 K | 767.391 | 1067.2
313.15 K | 764.739 | 1056.7
315.65 K | 762.054 | 1046.1
318.15 K | 759.355 | 1035.7
320.65 K | 756.633 | 1025.2
323.15 K | 753.891 | 1014.8

CC(C)CC(C)(C)C [2,2,4-trimethylpentane]
[2]
Settings | mass density [kg/m3] | speed of sound [m/s]
288.15 K | 695.948 | 1124.3
290.65 K | 693.91 | 1113.8
293.15 K | 691.861 | 1103.3
295.65 K | 689.809 | 1092.7
298.15 K | 687.749 | 1082.2
300.65 K | 685.687 | 1071.7
303.15 K | 683.618 | 1061.3
305.65 K | 681.542 | 1050.9
308.15 K | 679.459 | 1040.5
310.65 K | 677.373 | 1030.2
313.15 K | 675.278 | 1019.9
315.65 K | 673.177 | 1009.7
318.15 K | 671.069 | 999.53
320.65 K | 668.954 | 989.37
323.15 K | 666.832 | 979.25

CCc1ccccc1 [ethylbenzene]
[2]
Settings | mass density [kg/m3] | speed of sound [m/s]
288.15 K | 871.245 | 1360.7
290.65 K | 869.052 | 1349.9
293.15 K | 866.856 | 1339.4
295.65 K | 864.66 | 1328.9
298.15 K | 862.459 | 1318.4
300.65 K | 860.256 | 1307.9
303.15 K | 858.047 | 1297.5
305.65 K | 855.837 | 1287.1
308.15 K | 853.622 | 1276.8
310.65 K | 851.407 | 1266.5
313.15 K | 849.186 | 1256.3
315.65 K | 846.964 | 1246.1
318.15 K | 844.741 | 1236.1
320.65 K | 842.518 | 1226.1
323.15 K | 840.306 | 1216.3

c1ccccc1 [benzene]
[2]
Settings | mass density [kg/m3] | speed of sound [m/s]
288.15 K | 884.183 | 1345.5
290.65 K | 881.521 | 1333.4
293.15 K | 878.856 | 1321.6
295.65 K | 876.19 | 1309.9
298.15 K | 873.52 | 1298.3
300.65 K | 870.847 | 1286.7
303.15 K | 868.172 | 1275.1
305.65 K | 865.49 | 1263.6
308.15 K | 862.805 | 1252.1
310.65 K | 860.118 | 1240.7
313.15 K | 857.425 | 1229.3
315.65 K | 854.73 | 1217.9
318.15 K | 852.032 | 1206.7
320.65 K | 849.331 | 1195.5
323.15 K | 846.641 | 1184.6

Cc1ccccc1 [toluene] + COC(C)(C)C
[1]
Settings | mass density [kg/m3] | speed of sound [m/s]
288.15 K | 871.457 | 1347.5
290.65 K | 869.144 | 1336.3
293.15 K | 866.823 | 1325.3
295.65 K | 864.5 | 1314.3
298.15 K | 862.173 | 1303.4
300.65 K | 859.845 | 1292.6
303.15 K | 857.513 | 1281.9
305.65 K | 855.175 | 1271.2
308.15 K | 852.838 | 1260.5
310.65 K | 850.494 | 1249.8
313.15 K | 848.146 | 1239.2
315.65 K | 845.794 | 1228.6
318.15 K | 843.437 | 1218
320.65 K | 841.075 | 1207.3
323.15 K | 838.706 | 1196.6
